Series [1] deals with human recombinant CB1 receptor (Homo sapiens, UniProt P21554). In words: Competition binding assay, displacement of [3H]-CP-55,940, CB1R. The method, then:
(§1) Binding at equilibrium was performed as previously reported. […] All compounds were tested following the procedure described by the manufacturer (Perkin Elmer, Italy). […] Ki values were calculated by applying the Cheng–Prusoff equation to the IC50 values (obtained by GraphPad) for the displacement of the bound radioligand by increasing concentrations of the test compound.
A general note: In a radioligand displacement assay an active substance lowers the binding of a labelled ligand.

Series [2] has as its target T1, human CB2 receptor (Homo sapiens, UniProt P34972). Put plainly: Competition binding assay, displacement of [3H]-CP-55,940, CB2R. The arrangement: logKiCB2 (nM) Exp.: unit not given here. Here is the method: as §1
The target in series [3] is T1, human CB2 receptor. In words: cAMP Hunter functional assay in NKH-477-stimulated CHO-K1 cells overexpressing CB2R. Particulars: agonist mode / antagonist mode with JWH-133 4 µM challenge.
Setting [4] is: membranes from HEK cells, [3H]CP-55,940, mean ± SD, at least three experiments in duplicate, read-out: CB1R Ki.
The mark [5] stands for this setting: membranes from HEK cells, [3H]CP-55,940, mean ± SD, at least three experiments in duplicate, read-out: CB2R Ki.
Setting [6] is: CB2R Ki, membranes from HEK cells, [3H]CP-55,940, mean ± SD, at least three experiments in duplicate.

Values joined by “and” are separate entries in the source; they are usually repeats but may differ in a detail not shown here. Equal entries are not always repeated. Where two headings read alike, the source gives them in different places.

For orientation: Ki means the dissociation constant of the complex between target and ligand, obtained from inhibition or displacement. The term melting point denotes the temperature of the solid-liquid transition.

T1 sequence (P34972 whole entry): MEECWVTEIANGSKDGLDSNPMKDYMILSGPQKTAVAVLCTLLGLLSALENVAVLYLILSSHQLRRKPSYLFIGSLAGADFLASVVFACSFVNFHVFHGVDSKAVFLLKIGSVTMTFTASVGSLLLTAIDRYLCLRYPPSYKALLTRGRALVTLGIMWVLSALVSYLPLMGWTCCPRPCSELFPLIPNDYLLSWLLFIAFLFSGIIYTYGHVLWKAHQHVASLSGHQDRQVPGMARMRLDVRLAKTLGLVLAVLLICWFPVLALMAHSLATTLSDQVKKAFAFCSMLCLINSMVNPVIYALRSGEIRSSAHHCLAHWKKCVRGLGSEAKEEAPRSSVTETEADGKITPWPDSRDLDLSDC
Chain of human recombinant CB1 receptor (P21554 whole entry): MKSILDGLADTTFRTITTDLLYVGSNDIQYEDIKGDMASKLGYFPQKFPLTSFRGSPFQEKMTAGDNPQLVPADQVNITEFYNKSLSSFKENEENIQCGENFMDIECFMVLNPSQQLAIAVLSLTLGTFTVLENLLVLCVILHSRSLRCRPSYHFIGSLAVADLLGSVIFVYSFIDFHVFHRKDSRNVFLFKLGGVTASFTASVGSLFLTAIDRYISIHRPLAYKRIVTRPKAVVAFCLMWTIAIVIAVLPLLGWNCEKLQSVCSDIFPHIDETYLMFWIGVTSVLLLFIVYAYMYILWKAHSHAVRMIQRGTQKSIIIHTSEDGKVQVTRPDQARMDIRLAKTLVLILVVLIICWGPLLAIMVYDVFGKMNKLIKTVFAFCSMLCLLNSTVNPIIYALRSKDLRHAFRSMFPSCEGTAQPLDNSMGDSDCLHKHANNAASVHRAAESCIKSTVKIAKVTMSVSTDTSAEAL

Regarding `CCCCn1c(=O)c(C(=O)NC(C)(C)C)c(O)c2nn(C)cc21` [Compound 13, 4-(1-Butyl)-N-(tert-butyl)-7-hydroxy-2-methyl-5-oxo-4,5-dihydro-2H-pyrazolo[4,3-b]pyridine-6-carboxamide], the Ki in series [1] (setting [4]) is over 10 µM; in series [2] (setting [5]), over 10000 nM.
For the compound `CCCCn1c(=O)c(C(=O)NC2CCCC2)c(O)c2nn(C)cc21` [Compound 14, 4-(1-Butyl)-N-cyclopentyl-7-hydroxy-2-methyl-5-oxo-4,5-dihydro-2H-pyrazolo[4,3-b]pyridine-6-carboxamide], the values for the Ki in series [1] (setting [4]) and in series [2] (setting [5]) were over 10 µM and over 10000 nM, respectively.
Consider `CCCCn1c(=O)c(C(=O)NC2CCCCCCC2)c(O)c2nn(C)cc21` [Compound 15, 4-(1-Butyl)-N-cyclooctyl-7-hydroxy-2-methyl-5-oxo-4,5-dihydro-2H-pyrazolo[4,3-b]pyridine-6-carboxamide], for which the Ki is over 10 µM in series [1] (setting [4]); < 20 nM and 9.03 nM in series [2] (setting [6]); 14.5 nM in series [2] (logKiCB2 (nM) Exp., log of experimental Ki). Further, the “SI (selectivity index for CB2R, Ki(CB1R)/Ki(CB2R))” value in series [2] is on record as over 1107. In series [3], the “Functional behavior at CB2R” value is listed as “antagonist/inverse agonist behavior”.
For `CCCCn1c(=O)c(C(=O)Nc2ccc(F)cc2)c(O)c2nn(C)cc21` [Compound 16, 4-(1-Butyl)-N-(4-fluorophenyl)-7-hydroxy-2-methyl-5-oxo-4,5-dihydro-2H-pyrazolo[4,3-b]pyridine-6-carboxamide], the inhibitory constant (Ki) in series [1] (setting [4]) is over 10 µM; in series [2] (setting [5]), over 10000 nM.
On to `CCCCn1c(=O)c(C(=O)NCc2ccc(F)cc2)c(O)c2nn(C)cc21` [Compound 17, 4-(1-Butyl)-N-(4-fluorobenzyl)-7-hydroxy-2-methyl-5-oxo-4,5-dihydro-2H-pyrazolo[4,3-b]pyridine-6-carboxamide], for which the values for the Ki in series [1] (setting [4]) and in series [2] (setting [5]) were over 10 µM and over 10000 nM, respectively.
Turning to `CCCCn1c(=O)c(C(=O)NC(c2ccccc2)c2ccccc2)c(O)c2nn(C)cc21` [Compound 19, N-Benzhydryl-4-(1-butyl)-7-hydroxy-2-methyl-5-oxo-4,5-dihydro-2H-pyrazolo[4,3-b]pyridine-6-carboxamide], the Ki was over 10 µM in series [1] (setting [4]) and 142 ± 110 nM in series [2] (setting [5]). For the same compound, the “SI (selectivity index for CB2R, Ki(CB1R)/Ki(CB2R))” value in series [2] was over 70. Moreover, the “logKiCB2 (nM) Exp.” value in series [2] (log of experimental Ki) amounted to 2.15.
On to `CCCCn1c(=O)c(C(=O)N[C@@H](Cc2ccccc2)C(=O)OC(C)(C)C)c(O)c2nn(C)cc21` [Compound 20, tert-Butyl (4-Butyl-7-hydroxy-2-methyl-5-oxo-4,5-dihydro-2H-pyrazolo[4,3-b]pyridine-6-carbonyl)-L-phenylalaninate], for which the inhibitory constant (Ki) in series [1] (setting [4]) was over 10 µM; in series [2] (setting [5]) it was over 10000 nM.
Take `CC(C)n1c(=O)c(C(=O)NC23CC4CC(CC(C4)C2)C3)c(O)c2nn(C)cc21` [Compound 21, N-(Adamantan-1-yl)-7-hydroxy-4-isopropyl-2-methyl-5-oxo-4,5-dihydro-2H-pyrazolo[4,3-b]pyridine-6-carboxamide]: the results for the Ki in series [1] and in series [2] (setting [6]) were over 10 µM and over 10000 nM, respectively.
As for `CC(C)n1c(=O)c(C(=O)NC23CC4CC(CC(O)(C4)C2)C3)c(O)c2nn(C)cc21` [Compound 22, 7-Hydroxy-N-(1-hydroxyadamantan-3-yl)-4-isopropyl-2-methyl-5-oxo-4,5-dihydro-2H-pyrazolo[4,3-b]pyridine-6-carboxamide], the figures for the Ki in series [1] (setting [4]) and in series [2] (setting [5]) were over 10 µM and over 10000 nM, respectively.
Take `CC(C)n1c(=O)c(C(=O)NC2CCCCCCC2)c(O)c2nn(C)cc21` [Compound 23, N-Cyclooctyl-7-hydroxy-4-isopropyl-2-methyl-5-oxo-4,5-dihydro-2H-pyrazolo[4,3-b]pyridine-6-carboxamide]: the Ki in series [1] (setting [4]) was over 10 µM; in series [2] (setting [5]), over 10000 nM.
Consider `CC(C)n1c(=O)c(C(=O)NC2CCCc3ccccc32)c(O)c2nn(C)cc21` (stereo not drawn) [Compound 24, 7-Hydroxy-4-isopropyl-2-methyl-5-oxo-N-(1,2,3,4-tetrahydronaphthalen-1-yl)-4,5-dihydro-2H-pyrazolo[4,3-b]pyridine-6-carboxamide], for which the results for the Ki in series [1] (setting [4]) and in series [2] (setting [5]) were over 10 µM and over 10000 nM, respectively.
The like results for `CC(C)n1c(=O)c(C(=O)NC(c2ccccc2)c2ccccc2)c(O)c2nn(C)cc21` [Compound 25, N-Benzhydryl-7-hydroxy-4-isopropyl-2-methyl-5-oxo-4,5-dihydro-2H-pyrazolo[4,3-b]pyridine-6-carboxamide] were, in that order, over 10 µM and over 10000 nM.
Regarding `COc1ccc(Cn2c(=O)c(C(=O)NC34CC5CC(CC(C5)C3)C4)c(O)c3nn(C)cc32)c(OC)c1` [Compound 27, N-(Adamantan-1-yl)-4-(2,4-dimethoxybenzyl)-7-hydroxy-2-methyl-5-oxo-4,5-dihydro-2H-pyrazolo[4,3-b]pyridine-6-carboxamide], the melting point is over 270 °C. Besides, the Ki in series [1] (setting [4]) is over 10 µM. The “CB2 receptor affinity in words” value in series [2] was “completely inactive”. The Ki in series [2] (setting [5]) is over 10000 nM.
`CCn1cc2c(n1)c(O)c(C(=O)NC13CC4CC(CC(C4)C1)C3)c(=O)n2CC` [Compound 33, N-(Adamantan-1-yl)-2,4-diethyl-7-hydroxy-5-oxo-4,5-dihydro-2H-pyrazolo[4,3-b]pyridine-6-carboxamide] had a melting point of 245 to 247 °C. Moreover, in series [1] (setting [4]), the Ki is over 10 µM. Also, the “SI (selectivity index for CB2R, Ki(CB1R)/Ki(CB2R))” value in series [2] is given as over 416. The “logKiCB2 (nM) Exp.” value in series [2] (log of experimental Ki) was 1.38. In series [2] (setting [5]), the Ki is 24 ± 15.3 nM.
On to `CCCCn1c(=O)c(C(=O)NC(C)(C)C)c(O)c2nn(CC)cc21` [Compound 34, 4-(1-Butyl)-N-(tert-butyl)-2-ethyl-7-hydroxy-5-oxo-4,5-dihydro-2H-pyrazolo[4,3-b]pyridine-6-carboxamide], for which the Ki is over 10 µM in series [1] (setting [4]) and 106 ± 18.1 nM in series [2] (setting [5]). In series [2], the “SI (selectivity index for CB2R, Ki(CB1R)/Ki(CB2R))” value is recorded as over 95. In addition, the “logKiCB2 (nM) Exp.” value in series [2] (log of experimental Ki) is reported as 2.02.
On to `CCCCn1c(=O)c(C(=O)NC23CC4CC(CC(C4)C2)C3)c(O)c2c1c(C)nn2C` [Compound 51, N-(Adamantan-1-yl)-4-(1-butyl)-7-hydroxy-1,3-dimethyl-5-oxo-4,5-dihydro-1H-pyrazolo[4,3-b]pyridine-6-carboxamide], for which the melting point fell in the range of 162 to 165 °C. For the same compound, the Ki in series [1] (setting [4]) was over 10 µM. Also, the “SI (selectivity index for CB2R, Ki(CB1R)/Ki(CB2R))” value in series [2] is listed as over 280. The same compound came in with a Ki in series [2] (setting [6]) of 35.6 ± 19.5 nM. The “logKiCB2 (nM) Exp.” value in series [2] (log of experimental Ki) is 1.55.
The like results for `CCCCCn1c(=O)c(C(=O)NC23CC4CC(CC(C4)C2)C3)c(O)c2c1c(C)nn2C` [Compound 52, N-(Adamantan-1-yl)-7-hydroxy-1,3-dimethyl-5-oxo-4-(1-pentyl)-4,5-dihydro-1H-pyrazolo[4,3-b]pyridine-6-carboxamide] were, in that order, 167 to 169 °C, over 10 µM, over 293, 34.1 ± 4.88 nM and 1.53.
For the compound `Cc1c2c(nn1C)c(O)c(C(=O)NC13CC4CC(CC(C4)C1)C3)c(=O)n2C(C)C` [Compound 53, N-(Adamantan-1-yl)-7-hydroxy-4-isopropyl-2,3-dimethyl-5-oxo-4,5-dihydro-2H-pyrazolo[4,3-b]pyridine-6-carboxamide], the melting point was over 260 °C. In addition, the Ki in series [1] (setting [4]) was over 10 µM. In addition, the “CB2 receptor affinity in words” value in series [2] was “inactive”. In addition, the Ki in series [2] (setting [5]) is over 10000 nM.
As to `CCCCn1c(=O)c(C(=O)NC23CC4CC(CC(C4)C2)C3)c(O)c2nn(C)c(C)c21` [Compound 54, N-(Adamantan-1-yl)-4-(1-butyl)-7-hydroxy-2,3-dimethyl-5-oxo-4,5-dihydro-2H-pyrazolo[4,3-b]pyridine-6-carboxamide], the melting point lay within 213 to 216 °C. Besides, in series [1], the “CB1 receptor activity in words” value was “not active at all”. In series [1] (setting [4]), the Ki is over 10 µM. Moreover, the Ki in series [2] (setting [6]) is < 20 nM and 2.16 nM. Moreover, in series [2] (log of experimental Ki), the “logKiCB2 (nM) Exp.” value is reported as 0.33.
Consider `CC(C)n1c(=O)c(C(=O)NC23CC4CC(CC(C4)C2)C3)c(O)c2n[nH]cc21` [Compound 56], for which the inhibitory constant (Ki) in series [1] (setting [4]) was over 10 µM; in series [2] (setting [5]), over 10000 nM. Moreover, the “CB2 receptor affinity in words” value in series [2] was “inactive”.
As for `C#CCn1ncc2c1c(O)c(C(=O)NC13CC4CC(CC(C4)C1)C3)c(=O)n2C(C)C` [Compound 58], the Ki was over 10 µM in series [1] and 61.8 ± 20.8 nM in series [2] (setting [6]). In addition, in series [2], the “SI (selectivity index for CB2R, Ki(CB1R)/Ki(CB2R))” value is on record as over 162. Further, the “logKiCB2 (nM) Exp.” value in series [2] (log of experimental Ki) is listed as 1.79.
For `C#CCn1cc2c(n1)c(O)c(C(=O)NC13CC4CC(CC(C4)C1)C3)c(=O)n2C(C)C` [Compound 59], the Ki in series [1] was over 10 µM; in series [2] (setting [6]) it was over 10000 nM. Moreover, the “CB2 receptor affinity in words” value in series [2] was “inactive”.
Take `CC(C)n1c(=O)c(C(=O)NC23CC4CC(CC(C4)C2)C3)c(O)c2c1cnn2CC#N` [Compound 60]: the Ki in series [1] (setting [4]) is over 10 µM; in series [2] (setting [5]), 48.5 ± 10.9 nM. Moreover, the “SI (selectivity index for CB2R, Ki(CB1R)/Ki(CB2R))” value in series [2] is over 206. Moreover, the “logKiCB2 (nM) Exp.” value in series [2] (log of experimental Ki) was 1.68.
For `CC(C)n1c(=O)c(C(=O)NC23CC4CC(CC(C4)C2)C3)c(O)c2nn(CC(=O)OC(C)(C)C)cc21` [Compound 61], the Ki in series [1] (setting [4]) was over 10 µM; in series [2] (setting [5]), over 10000 nM. The “CB2 receptor affinity in words” value in series [2] is “inactive”.
In the case of `CC(C)n1c(=O)c(C(=O)NC23CC4CC(CC(C4)C2)C3)c(O)c2nn(Cc3ccc(F)cc3)cc21` [Compound 62], the Ki was over 10 µM in series [1] (setting [4]) and over 10000 nM in series [2] (setting [5]). Besides, in series [2], the “CB2 receptor affinity in words” value is “inactive”.

Source of the values: publication PMC10343475, “Systematic Modification of the Substitution Pattern of the 7-Hydroxy-5-oxopyrazolo[4,3-b]pyridine-6-carboxamide Scaffold Enabled the Discovery of New Ligands with High Affinity and Selectivity for the Cannabinoid Type 2 Receptor” (Molecules, 2023).
